Experimental findings from patent US20230312587A1, “PTERIDINONE COMPOUNDS AND USES THEREOF” (Vertex Pharmaceutical Incorporated, priority 2018, published 2023) are described below.

Read-outs that look alike come from different tables or passages of the source. Where only a bound is given, the exact number is not on record here.

What is called IC50 is the midpoint of a concentration-inhibition curve.

The subject of the assay is β-catenin-TCF-mediated reporter transcription activity in Colo 205 cells. The assay is described as follows: Colo 205 reporter assay (TCF/LEF luciferase). In kind it is cell-based. The following applies: Homo sapiens, Colo 205 TCF/LEF luciferase reporter, five hours after addition of compound, read-out: TCF reporter Colo205 IC50. The gist of the method:
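Luciferase signal from a TCF/LEF-driven reporter, stably integrated in Colo 205 colon cancer cells, was measured 5 h after compound addition.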

Take `Cc1nc(N[C@H]2C[C@@H](NC(=O)Nc3cc(F)c(F)c(F)c3)C2)nc2c1NC(=O)[C@H](C)N2C` [Compound 472, 1-(3,4,5-trifluorophenyl)-3-(cis-3-(((S)-4,7,8-trimethyl-6-oxo-5,6,7,8-tetrahydropteridin-2-yl)amino)cyclobutyl)urea]: the IC50 (COLO 205, 5 h) was less than 0.3 µM.

`Cc1nc(N[C@H]2C[C@@H](NC(=O)Nc3ccc(C(F)(F)F)nc3)C2)nc2c1NC(=O)[C@H](C)N2C` [Compound 473, 1-(6-(trifluoromethyl)pyridin-3-yl)-3-(cis-3-(((S)-4,7,8-trimethyl-6-oxo-5,6,7,8-tetrahydropteridin-2-yl)amino)cyclobutyl)urea]: the IC50 (COLO 205, 5 h) is less than 0.3 µM.

As to `Cc1nc(N[C@H]2C[C@H](NC(=O)Nc3cc(F)c(F)c(F)c3)C2)nc2c1NC(=O)[C@H](C)N2C` [Compound 474, 1-(3,4,5-trifluorophenyl)-3-(trans-3-(((S)-4,7,8-trimethyl-6-oxo-5,6,7,8-tetrahydropteridin-2-yl)amino)cyclobutyl)urea], under “COLO 205, 5 h”, the IC50 fell in the range of 1 to 5 µM.

For the compound `Cc1nc(N[C@H]2C[C@@H](NC(=O)c3cc(F)c(F)c(F)c3)C2)nc2c1NC(=O)[C@H](C)N2C` [Compound 475, 3,4,5-trifluoro-N-(cis-3-(((S)-4,7,8-trimethyl-6-oxo-5,6,7,8-tetrahydropteridin-2-yl)amino)cyclobutyl)benzamide], under “COLO 205, 5 h”, the IC50 fell in the range of 1 to 5 µM.

In the case of `Cc1nc(N[C@H]2C[C@H](NC(=O)c3cc(F)c(F)c(F)c3)C2)nc2c1NC(=O)[C@H](C)N2C` [Compound 476, 3,4,5-trifluoro-N-(trans-3-(((S)-4,7,8-trimethyl-6-oxo-5,6,7,8-tetrahydropteridin-2-yl)amino)cyclobutyl)benzamide], the IC50 (COLO 205, 5 h) fell in the range of 1 to 5 µM.

As for `Cc1nc(N[C@H]2C[C@@H](NC(=O)Nc3cc(F)c(F)cc3F)C2)nc2c1NC(=O)[C@H](C)N2C` [Compound 477, 1-(2,4,5-trifluorophenyl)-3-(cis-3-(((S)-4,7,8-trimethyl-6-oxo-5,6,7,8-tetrahydropteridin-2-yl)amino)cyclobutyl)urea], where the note is “COLO 205, 5 h”, the IC50 was less than 0.3 µM.

Take `Cc1nc(N[C@H]2C[C@H](NC(=O)Nc3cc(F)c(F)cc3F)C2)nc2c1NC(=O)[C@H](C)N2C` [Compound 478, 1-(2,4,5-trifluorophenyl)-3-(trans-3-(((S)-4,7,8-trimethyl-6-oxo-5,6,7,8-tetrahydropteridin-2-yl)amino)cyclobutyl)urea]: the IC50 (COLO 205, 5 h) was in the range of 1 to 5 µM.

For the compound `Cc1nc(NCc2cnn(Cc3ccc(F)cc3)c2)nc2c1NC(=O)[C@H](C(C)C)N2C` [Compound 479, (S)-2-(((1-(4-fluorobenzyl)-1H-pyrazol-4-yl)methyl)amino)-7-isopropyl-4,8-dimethyl-7,8-dihydropteridin-6(5H)-one], where the note is “COLO 205, 5 h”, the IC50 was less than 0.3 µM.

Take `C=C(C)c1ccc(Cn2cc(CNc3nc(C)c4c(n3)N(C)[C@@H](C(C)C)C(=O)N4)cn2)cn1` [Compound 480, (S)-7-isopropyl-4,8-dimethyl-2-(((1-((6-(prop-1-en-2-yl)pyridin-3-yl)methyl)-1H-pyrazol-4-yl)methyl)amino)-7,8-dihydropteridin-6(5H)-one]: the IC50 (COLO 205, 5 h) is less than 0.3 µM.

Regarding `Cc1nc(N[C@H]2C[C@@H](NS(=O)(=O)c3cc(F)c(F)c(F)c3)C2)nc2c1NC(=O)[C@H](C)N2C` [Compound 481, 3,4,5-trifluoro-N-(cis-3-(((S)-4,7,8-trimethyl-6-oxo-5,6,7,8-tetrahydropteridin-2-yl)amino)cyclobutyl)benzenesulfonamide], where the note is “COLO 205, 5 h”, the IC50 lay within 0.3 to 1 µM.

Turning to `Cc1nc(N[C@H]2C[C@H](NS(=O)(=O)c3cc(F)c(F)c(F)c3)C2)nc2c1NC(=O)[C@H](C)N2C` [Compound 482, 3,4,5-trifluoro-N-(trans-3-(((S)-4,7,8-trimethyl-6-oxo-5,6,7,8-tetrahydropteridin-2-yl)amino)cyclobutyl)benzenesulfonamide], the IC50 (COLO 205, 5 h) was not below 5 µM.

For the compound `Cc1nc(N[C@H]2C[C@H](NC(=O)Oc3cc(F)c(F)c(F)c3)C2)nc2c1NC(=O)[C@H](C)N2C` [Compound 483, 3,4,5-trifluorophenyl (trans-3-(((S)-4,7,8-trimethyl-6-oxo-5,6,7,8-tetrahydropteridin-2-yl)amino)cyclobutyl)carbamate], the IC50 (5 h) fell in the range of 1 to 5 µM.

For `Cc1nc(N[C@H]2C[C@@H](NC(=O)Oc3cc(F)c(F)c(F)c3)C2)nc2c1NC(=O)[C@H](C)N2C` [Compound 484, 3,4,5-trifluorophenyl (cis-3-(((S)-4,7,8-trimethyl-6-oxo-5,6,7,8-tetrahydropteridin-2-yl)amino)cyclobutyl)carbamate], the concentration for half-maximal inhibition (IC50) (5 h) lay within 1 to 5 µM.

As to `Cc1nc(N[C@H]2C[C@@H](Nc3cc(F)c(F)c(F)c3)C2)nc2c1NC(=O)[C@H](C)N2C` [Compound 485, (S)-4,7,8-trimethyl-2-((cis-3-((3,4,5-trifluorophenyl)amino)cyclobutyl)amino)-7,8-dihydropteridin-6(5H)-one], for the setting “COLO 205, 5 h”, the IC50 was less than 0.3 µM.

As to `Cc1nc(N[C@H]2C[C@H](Nc3cc(F)c(F)c(F)c3)C2)nc2c1NC(=O)[C@H](C)N2C` [Compound 486, (S)-4,7,8-trimethyl-2-((trans-3-((3,4,5-trifluorophenyl)amino)cyclobutyl)amino)-7,8-dihydropteridin-6(5H)-one], the IC50 (COLO 205, 5 h) fell in the range of 1 to 5 µM.

`C[C@H]1C(=O)Nc2c(CO)nc(NCc3cnn(Cc4ccc(C(F)(F)F)nc4)c3)nc2N1C` [Compound 487, (7S)-4-(hydroxymethyl)-7,8-dimethyl-2-(((1-((6-(trifluoromethyl)pyridin-3-yl)methyl)-1H-pyrazol-4-yl)methyl)amino)-7,8-dihydropteridin-6(5H)-one]: the IC50 (COLO 205, 5 h) lay in the range of 0.3 to 1 µM.

With `COc1c(F)cc(Cn2cnc(CNc3nc(C)c4c(n3)N(C)[C@@H](C(C)C)C(=O)N4)n2)cc1F` [Compound 488, (S)-2-(((1-(3,5-difluoro-4-methoxybenzyl)-1H-1,2,4-triazol-3-yl)methyl)amino)-7-isopropyl-4,8-dimethyl-7,8-dihydropteridin-6(5H)-one], under “COLO 205, 5 h”, the IC50 was in the range of 1 to 5 µM.

With `Cc1nc(NCc2ncn(Cc3ccc(OC(F)(F)F)cc3)n2)nc2c1NC(=O)[C@H](C(C)C)N2C` [Compound 489, (S)-7-isopropyl-4,8-dimethyl-2-(((1-(4-(trifluoromethoxy)benzyl)-1H-1,2,4-triazol-3-yl)methyl)amino)-7,8-dihydropteridin-6(5H)-one], the IC50 (COLO 205, 5 h) was not below 5 µM.

Take `Cc1nc(NCc2ncn(Cc3cc(F)c(F)c(F)c3)n2)nc2c1NC(=O)[C@H](C(C)C)N2C` [Compound 490, (S)-7-isopropyl-4,8-dimethyl-2-(((1-(3,4,5-trifluorobenzyl)-1H-1,2,4-triazol-3-yl)methyl)amino)-7,8-dihydropteridin-6(5H)-one]: for the setting “COLO 205, 5 h”, the IC50 was not below 5 µM.

With `Cc1nc(NCc2cnn(CCCc3ccc(C(F)(F)F)nc3)c2)nc2c1NC(=O)[C@H](C)N2C` [Compound 492, (S)-4,7,8-trimethyl-2-(((1-(3-(6-(trifluoromethyl)pyridin-3-yl)propyl)-1H-pyrazol-4-yl)methyl)amino)-7,8-dihydropteridin-6(5H)-one], the concentration for half-maximal inhibition (IC50) (COLO 205, 5 h) is 0.3 to 1 µM.

Consider `[2H]C([2H])(O)c1nc(NCc2cnn(Cc3ccc(C(F)(F)F)nc3)c2)nc2c1NC(=O)[C@H](C)N2C` [Compound 493, (7S)-4-(hydroxymethyl-d2)-7,8-dimethyl-2-(((1-((6-(trifluoromethyl)pyridin-3-yl)methyl)-1H-pyrazol-4-yl)methyl)amino)-7,8-dihydropteridin-6(5H)-one], for which, for the setting “COLO 205, 5 h”, the IC50 lay within 1 to 5 µM.

With `[2H]C([2H])([2H])c1nc(NCc2cnn(Cc3ccc(C(F)(F)F)nc3)c2)nc2c1NC(=O)[C@H](C)N2C` [Compound 494, (7S)-7,8-dimethyl-4-(methyl-d3)-2-(((1-((6-(trifluoromethyl)pyridin-3-yl)methyl)-1H-pyrazol-4-yl)methyl)amino)-7,8-dihydropteridin-6(5H)-one], the IC50 (COLO 205, 5 h) was less than 0.3 µM.

For `Cc1nc(NCc2cnn(Cc3ccc(C(F)(F)F)nc3)c2)nc2c1NC(=O)[C@H](CC(F)(F)F)N2C` [Compound 495, (S)-4,8-dimethyl-7-(2,2,2-trifluoroethyl)-2-(((1-((6-(trifluoromethyl)pyridin-3-yl)methyl)-1H-pyrazol-4-yl)methyl)amino)-7,8-dihydropteridin-6(5H)-one], where the note is “COLO 205, 5 h”, the IC50 is less than 0.3 µM.

For the compound `CC[C@H]1C(=O)Nc2cnc(NCc3cnn(Cc4ccc(C(F)(F)F)nc4)c3)nc2N1C(C)C` [Compound 497, (7S)-7-ethyl-8-isopropyl-2-(((1-((6-(trifluoromethyl)pyridin-3-yl)methyl)-1H-pyrazol-4-yl)methyl)amino)-7,8-dihydropteridin-6(5H)-one], the IC50 (COLO 205, 5 h) was in the range of 0.3 to 1 µM.

On to `CO[C@H](C)[C@H]1C(=O)Nc2c(C)nc(NCc3cnn(Cc4ccc(C(F)(F)F)nc4)c3)nc2N1C` [Compound 498, (S)-7-((R)-1-methoxyethyl)-4,8-dimethyl-2-(((1-((6-(trifluoromethyl)pyridin-3-yl)methyl)-1H-pyrazol-4-yl)methyl)amino)-7,8-dihydropteridin-6(5H)-one], for which the IC50 (COLO 205, 5 h) was less than 0.3 µM.

Take `Cc1nc(N[C@H]2CC[C@@H](N(C)c3ccc(C(F)(F)F)cc3)C2)nc2c1NC(=O)[C@H](C(C)C)N2C` [Compound 502, (S)-7-isopropyl-4,8-dimethyl-2-(((1S,3R)-3-(methyl(4-(trifluoromethyl)phenyl)amino)cyclopentyl)amino)-7,8-dihydropteridin-6(5H)-one]: where the note is “COLO 205, 5 h”, the IC50 lay within 1 to 5 µM.

Regarding `Cc1nc(N[C@H]2CC[C@H](N(C)c3ccc(C(F)(F)F)cc3)C2)nc2c1NC(=O)[C@H](C(C)C)N2C` [Compound 503, (S)-7-isopropyl-4,8-dimethyl-2-(((1S,3S)-3-(methyl(4-(trifluoromethyl)phenyl)amino)cyclopentyl)amino)-7,8-dihydropteridin-6(5H)-one], where the note is “COLO 205, 5 h”, the IC50 lay within 1 to 5 µM.

In the case of `Cc1nc(N[C@@H]2CC[C@@H](N(C)c3ccc(C(F)(F)F)cc3)C2)nc2c1NC(=O)[C@H](C(C)C)N2C` [Compound 504, (S)-7-isopropyl-4,8-dimethyl-2-(((1R,3R)-3-(methyl(4-(trifluoromethyl)phenyl)amino)cyclopentyl)amino)-7,8-dihydropteridin-6(5H)-one], the IC50 (COLO 205, 5 h) was in the range of 0.3 to 1 µM.
